Several values for one entry are separate records, joined by “and”; a condition that tells them apart may be missing. Identical values can stand only once. Counter-ions that a name gives are not always drawn. Like-named read-outs stand apart in the source and are kept apart here.
Target: T1, His6-AspH315–758 (human aspartate/asparagine-β-hydroxylase, AspH) (Homo sapiens, UniProt Q12797)
T1 construct: N-Terminally His6-tagged human AspH315–758 (His6-AspH315–758) was produced in E. coli BL21 (DE3) cells; made in house; host or cells: E. coli BL21 (DE3), pET-28a(+) vector
T1 sequence (Q12797 315-758): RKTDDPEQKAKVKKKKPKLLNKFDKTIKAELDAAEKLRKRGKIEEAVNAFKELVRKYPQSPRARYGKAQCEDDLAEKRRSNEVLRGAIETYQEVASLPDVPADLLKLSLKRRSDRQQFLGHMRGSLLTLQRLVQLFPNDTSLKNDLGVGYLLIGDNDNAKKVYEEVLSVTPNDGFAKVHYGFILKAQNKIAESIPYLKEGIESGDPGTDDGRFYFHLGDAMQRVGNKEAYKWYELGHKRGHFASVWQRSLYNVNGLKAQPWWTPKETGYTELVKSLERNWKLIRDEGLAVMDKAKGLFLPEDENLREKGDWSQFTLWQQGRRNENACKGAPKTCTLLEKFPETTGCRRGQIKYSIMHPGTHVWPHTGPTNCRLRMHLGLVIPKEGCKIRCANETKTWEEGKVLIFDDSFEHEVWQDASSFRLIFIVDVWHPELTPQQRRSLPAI
Test: SPE-MS AspH inhibition assay (LOPAC screen at fixed 20 μM and IC50 dose-response), hydroxylation of cyclic peptide hFX-CP101–119
Type: biochemical
Settings: for inhibition at 20 µM: read-out: Plate 2 (% inhibition); for Plate 5 (% inhibition) / Plate 5 (% conversion): plate 5 (Pfitzer), test compounds at fixed 20 μM; for Plate 5 (% conversion): mean conversion DMSO 32.88; for IC50: read-out: IC50

[1] = LOPAC compound at 20uM, plate 2, conversion of substrate peptide
[2] = LOPAC compound at 20uM, plate 2, normalised to DMSO and 2,4-PDCA controls
[3] = LOPAC compound at 20uM, plate 3, conversion of substrate peptide
[4] = LOPAC compound at fixed 20 uM, plate 1, normalised to DMSO and 2,4-PDCA controls
[5] = LOPAC compound at fixed 20 uM, substrate conversion, plate 1
[6] = LOPAC Plate 4, compound at 20 uM, substrate conversion
[7] = 50 nM His6-AspH315–758, 1.0 μM hFX-CP101–119, 3 μM 2OG, 2 μM Fe(II), 50 mM HEPES pH 7.5, 20 °C, mean ± SD, n = 2 (2,4-PDCA n = 10)

CCOC(=O)Nc1ccc(NCc2ccc(F)cc2)nc1N [Flupirtine maleate]
Plate 2 (% conversion) [1]: 33.85%
inhibition at 20 µM [2]: 6.29%

O=C1NCN(c2ccccc2)C12CCN(CCCC(c1ccc(F)cc1)c1ccc(F)cc1)CC2 [Fluspirilene]
Plate 2 (% conversion) [1]: 58.99%
inhibition at 20 µM [2]: -68.8%

CC(C)C(=O)Nc1ccc([N+](=O)[O-])c(C(F)(F)F)c1 [Flutamide]
Plate 2 (% conversion) [1]: 40.61%
inhibition at 20 µM [2]: -13.9%

O=CN(O)CCCP(=O)([O-])O.[Na+] [Fosmidomycin sodium salt hydrate]
Plate 3 (% conversion) [3]: 34.84%

C[C@]12CC[C@@H]3c4ccc(O)cc4C[C@@H](CCCCCCCCC[S+]([O-])CCCC(F)(F)C(F)(F)F)[C@H]3[C@@H]1CC[C@@H]2O (stereo partly shown) [Fulvestrant]
Plate 1 (% inhibition) [4]: 12.89%
Plate 1 (% conversion) [5]: 31.54%

Cc1nc2c([nH]1)c(=O)n(C)c(=O)n2Cc1ccco1 [Furafylline]
Plate 2 (% conversion) [1]: 36.33%
inhibition at 20 µM [2]: -1.12%

O=C([O-])c1cc2cc(Cc3cccnc3)ccc2o1.[Na+] [Furegrelate sodium]
Plate 2 (% conversion) [1]: 36.88%
Plate 2 (% inhibition) [2]: -2.76%

NS(=O)(=O)c1cc(C(=O)O)c(NCc2ccco2)cc1Cl [Furosemide]
inhibition at 20 µM [2]: 2.67%

CCCCc1ccc(C(=O)O)nc1 [Fusaric acid]
Plate 2 (% conversion): 28.15%
inhibition at 20 µM: 23.3%

CC(=O)O[C@H]1C[C@@]2(C)[C@@H](C[C@@H](O)[C@H]3[C@@]4(C)CC[C@@H](O)[C@@H](C)[C@@H]4CC[C@@]32C)/C1=C(\CCC=C(C)C)C(=O)[O-].[Na+] [Fusidic acid sodium]
Plate 2 (% conversion) [1]: 40.54%
Plate 2 (% inhibition) [2]: -13.68%

NCCCC(=O)O [GABA]
Plate 1 (% inhibition) [4]: -1.98%
Plate 1 (% conversion) [5]: 36.54%

CN(C)c1ccccc1CN1CCCN(Cc2ccccc2N(C)C)C1c1ccncc1 [GANT61]
% inhibition (LOPAC Plate 4, compound at 20 uM): -13.34%
% conversion [6]: 41.02%

Cl.Cl.Fc1ccc(C(OCCN2CCN(CCCc3ccccc3)CC2)c2ccc(F)cc2)cc1 [GBR-12909 dihydrochloride]
Plate 2 (% conversion) [1]: 51.05%
Plate 2 (% inhibition) [2]: -45.09%

Cl.Cl.c1ccc(CCCN2CCN(CCOC(c3ccccc3)c3ccccc3)CC2)cc1 [GBR-12935 dihydrochloride]
Plate 2 (% conversion): 46.64%
Plate 2 (% inhibition) (20 µM): -31.91%

NC(N)=Nc1ccc2[nH]c3c(c2c1)C[C@@]1(O)[C@H]2Cc4ccc(O)c5c4[C@@]1(CCN2CC1CC1)[C@H]3O5.O=C(O)C(F)(F)F.O=C(O)C(F)(F)F [GNTI, Guanidinyl-naltrindole di-trifluoroacetate, reference compound]
Plate 2 (% conversion): 1.92%
Inhibition at 20 µM [%] (20 µM): 100% and 101.7%
IC50 [μM] (pH 7.5): inactive

Br.Br.CN(C)CCCc1cc(C(=O)Nc2ccc(-c3ccncc3)cc2)ccc1O [GR 55562 dihydrobromide]
Plate 2 (% conversion) [1]: 31.31%
Plate 2 (% inhibition) [2]: 13.87%

OC[C@H]1O[C@@H](n2cnc3c(N[C@H]4CCC[C@@H]4O)ncnc32)[C@H](O)[C@@H]1O [GR 79236X]
Plate 1 (% inhibition) [4]: -7.17%
Plate 1 (% conversion) [5]: 38.28%

Cn1cc(C(=O)OCC2CCN(CCNS(C)(=O)=O)CC2)c2ccccc21 [GR 113808]
Plate 1 (% inhibition) [4]: -5.71%
Plate 1 (% conversion) [5]: 37.79%

O=S(=O)(N[C@H](CO)C(C(F)(F)F)C(F)(F)F)c1ccc(Cl)s1 [GSI-953]
Plate 5 (% inhibition): 5.55%
Plate 5 (% conversion): 34.43%

O=C(O)CCNc1cc(N2CCc3ccccc3CC2)nc(-c2ccccn2)n1 [GSK-J1, reference compound]
IC50 [7]: 12.9 ± 1.05 µM

CCOC(=O)CCNc1cc(N2CCc3ccccc3CC2)nc(-c2ccccn2)n1 [GSK-J4, reference compound]
IC50 [μM] [7]: inactive

O=C1Nc2ccc(I)cc2/C1=C/c1cc(Br)c(O)c(Br)c1 [GW5074, reference compound]
Inhibition at 20 µM [%]: 101.1%
IC50 (pH 7.5): 2.48 ± 0.14 µM

CC(C)(Sc1ccc(CCN(CCCCC2CCCCC2)C(=O)NC2CCCCC2)cc1)C(=O)O [GW7647]
Plate 2 (% conversion) [1]: 29.96%
inhibition at 20 µM [2]: 17.9%

O=C(O)CCc1ccc(NCc2cccc(Oc3ccccc3)c2)cc1 [GW9508]
Plate 2 (% conversion) [1]: 35.17%
inhibition at 20 µM [2]: 2.34%

CC1=NN=C(c2ccc(N)cc2)c2cc3c(cc2C1)OCO3.Cl [GYKI 52466 hydrochloride]
Plate 2 (% conversion): 38.91%
Plate 2 (% inhibition) [2]: -8.84%

Cl.NC1C=CC=C(C(=O)O)C1 (stereo not shown) [Gabaculine hydrochloride]
Plate 1 (% conversion): 33.90%
Plate 1 (% inhibition): 5.88%

CC[N+](CC)(CC)CCOc1cccc(OCC[N+](CC)(CC)CC)c1OCC[N+](CC)(CC)CC [Gallamine triethiodide]
Plate 2 (% conversion) [1]: 33.88%
inhibition at 20 µM [2]: 6.21%

CC(=O)[C@H]1CC[C@H]2[C@@H]3CC[C@H]4C[C@](C)(O)CC[C@]4(C)[C@H]3CC[C@]12C [Ganaxolone]
Plate 2 (% conversion): 36.34%
inhibition at 20 µM: -1.16%

Nc1nc(O)c2ncn(COC(CO)CO)c2n1 [Ganciclovir]
Plate 2 (% conversion) [1]: 35.57%
inhibition at 20 µM [2]: 1.14%

Nc1ccn([C@@H]2O[C@H](CO)[C@@H](O)C2(F)F)c(=O)n1 [Gemcitabine hydrochloride]
Plate 1 (% inhibition) [4]: 11.04%
Plate 1 (% conversion) [5]: 32.17%

COC(=O)C1=CO[C@@H](O)[C@@H]2C(CO)=CC[C@H]12 [Genipin]
Plate 2 (% conversion) [1]: 36.58%
inhibition at 20 µM [2]: -1.85%

O=c1c(-c2ccc(O)cc2)coc2cc(O)cc(O)c12 [Genistein]
Plate 2 (% conversion) [1]: 19.78%
inhibition at 20 µM [2]: 48.3%

CCOc1ncc(S(=O)(=O)N2CCN(CC)CC2)cc1-c1nc2c(CC)n(CCOC)nc2c(=O)[nH]1.O=S(=O)(O)c1ccccc1 [Gisadenafil besylate salt]
Plate 1 (% conversion): 43.96%
Plate 1 (% inhibition): -24.07%

CCOc1ncc(S(=O)(=O)N2CCN(CC)CC2)cc1-c1nc2c(CC)n(CCOC)nc2c(=O)[nH]1 [Gisadenafil]
Plate 5 (% inhibition): 10.85%
Plate 5 (% conversion): 32.62%

Cc1cnc(C(=O)NCCc2ccc(S(=O)(=O)NC(=O)NC3CCCCC3)cc2)cn1 [Glipizide]
inhibition at 20 µM [2]: -8.88%

Cc1cc2c(C(C)C)c(O)c(O)c(C=O)c2c(O)c1-c1c(C)cc2c(C(C)C)c(O)c(O)c(C=O)c2c1O [Gossypol]
Plate 3 (% conversion): 4.73%

CN1C2CCCC1CC(NC(=O)c1nn(C)c3ccccc13)C2 (stereo not shown) [Granisetron hydrochloride]
% conversion [6]: 34.30%

N=C(N)N/N=C/c1c(Cl)cccc1Cl [Guanabenz acetate]
Plate 2 (% conversion) [1]: 34.67%
inhibition at 20 µM [2]: 3.85%

CNCCNS(=O)(=O)c1cccc2cnccc12.Cl.Cl [H-8 dihydrochloride]
Plate 3 (% conversion) [3]: 37.53%

CCCCC#Cc1nc(NC)c2ncn([C@@H]3O[C@H](CO)[C@@H](O)[C@H]3O)c2n1 [HEMADO]
Plate 1 (% inhibition) [4]: 20.82%
Plate 1 (% conversion) [5]: 28.88%

Cc1nccc2c1[nH]c1ccccc12 [Harmane]
Plate 2 (% conversion): 35.31%
inhibition at 20 µM: 1.92%

C[N+](C)(C)CCCCCC[N+](C)(C)C [Hexamethonium bromide]
Plate 2 (% conversion): 40.56%
inhibition at 20 µM: -13.8%

C[N+](C)(C)CCCCCC[N+](C)(C)C.[Cl-].[Cl-] [Hexamethonium dichloride]
Plate 2 (% conversion): 37.53%
Plate 2 (% inhibition) (20 µM): -4.72%

O=c1cc(O)cc(/C=C/c2ccc(O)c(O)c2)o1 [Hispidin, reference compound]
Plate 2 (% conversion) [1]: 3.05%
inhibition at 20 µM [2]: 98.3%

NCCc1c[nH]cn1 [Histamine dihydrochloride]
Plate 2 (% conversion) [1]: 39.28%
inhibition at 20 µM [2]: -9.92%

NNc1nncc2ccccc12 [Hydralazine hydrochloride]
Plate 2 (% conversion) [1]: 38.20%
inhibition at 20 µM [2]: -6.7%

NS(=O)(=O)c1cc2c(cc1Cl)NCNS2(=O)=O [Hydrochlorothiazide]
Plate 2 (% conversion) [1]: 36.43%
inhibition at 20 µM [2]: -1.41%

C[C@]12CCC(=O)C=C1CC[C@@H]1[C@@H]2[C@@H](O)C[C@@]2(C)[C@H]1CC[C@]2(O)C(=O)CO [Hydrocortisone]
Plate 2 (% conversion) [1]: 37.93%
inhibition at 20 µM [2]: -5.89%

Cl.NO [Hydroxylamine hydrochloride]
Plate 2 (% conversion) [1]: 39.20%
Plate 2 (% inhibition) [2]: -9.70%

NC(=O)NO [Hydroxyurea]
Plate 2 (% conversion) [1]: 37.94%
Plate 2 (% inhibition) [2]: -5.92%

CNC(=O)[C@H]1O[C@@H](n2cnc3c(NCc4cccc(I)c4)ncnc32)[C@H](O)[C@@H]1O [IB-MECA]
Plate 3 (% conversion) [3]: 35.04%
